pKd: −log10 of the molar value.
Tests used:
TG-2 = TG-2 colorimetric microassay (transamidase activity) in lysate of treated mouse scleral fibroblasts; assay type: cell-based; settings: murine scleral derived fibroblasts, 0.01-10 μM for 5 days
hM1 = biological target: T1, hM1 (Homo sapiens, UniProt P11229); assay: himbacine binding to cloned muscarinic receptor subtypes; settings: cloned receptor subtype; data not shown
T1 sequence (P11229 1-460): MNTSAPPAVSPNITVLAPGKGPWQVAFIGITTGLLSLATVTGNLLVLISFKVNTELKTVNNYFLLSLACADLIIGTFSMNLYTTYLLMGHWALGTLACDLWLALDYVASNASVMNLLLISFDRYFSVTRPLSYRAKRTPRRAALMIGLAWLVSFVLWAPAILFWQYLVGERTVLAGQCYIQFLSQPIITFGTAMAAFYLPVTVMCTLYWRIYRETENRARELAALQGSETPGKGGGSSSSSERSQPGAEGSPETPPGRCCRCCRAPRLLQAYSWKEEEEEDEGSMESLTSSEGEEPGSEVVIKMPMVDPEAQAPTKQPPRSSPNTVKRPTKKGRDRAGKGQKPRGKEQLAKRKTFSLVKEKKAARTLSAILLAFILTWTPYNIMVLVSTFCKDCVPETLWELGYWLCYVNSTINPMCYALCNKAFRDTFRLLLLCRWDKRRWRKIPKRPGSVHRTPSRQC

Compound | transamidase (cross-linking) activity of TG-2 (TG-2) | pKd (hM1)
CN1[C@@H]2CC[C@H]1C[C@@H](OC(=O)C(CO)c1ccccc1)C2 (some centres unmarked) [atropine] | reduction | 
C[C@@H]1OC(=O)[C@H]2C[C@H]3CCCC[C@@H]3[C@@H](/C=C/[C@H]3CCC[C@H](C)N3C)[C@@H]12 [himbacine] |  | 7.08

From US20140050779A1, “[…]-2 INHIBITORS AND USES THEREOF” (SINGAPORE HEALTH SERVICES PTE. LTD., priority 2011, published 2014)
